For this test, the target named is T1, intestinal α-glucosidase.
T1 construct: gene SI; called intestinal, sucrose as substrate (points to sucrase-isomaltase), but a commercial yeast enzyme cannot be excluded; docking model 2QMJ is human maltase-glucoamylase
Kind of test: sucrose hydrolysis, glucose oxidase-peroxidase, absorbance at […] nm. In kind it is biochemical. As to conditions: phosphate pH 7.5, 37 °C, 20 min pre-incubation, positive control.

In brackets after ≈: the same amount, converted by molar mass.

`C[C@H]1O[C@H](O[C@H]2[C@H](O)[C@@H](O)[C@@H](O[C@H]3[C@H](O)[C@@H](O)C(O)O[C@@H]3CO)O[C@@H]2CO)[C@H](O)[C@@H](O)[C@@H]1N[C@H]1C=C(CO)[C@@H](O)[C@H](O)[C@H]1O` (stereo partly shown) [acarbose]: the IC50 – broadly, the concentration at which inhibition is half-maximal – worked out at 59 ± 9 µg/mL (≈ 91.4 µM).

(Values after article PMC11931151, “Inhibition of carbohydrate digestive enzymes by a complementary essential oil blend: in silico and mixture design approaches” (Frontiers in Pharmacology, 2025).)
